This note sets out measurements from patent US20090062267A1, “L-ALANINE DERIVATIVES AS a5beta1 ANTAGONISTS” (ASTRAZENECA AB, priority 2007, published 2009).

This assay concerns the target recombinant human α5β1 (Homo sapiens, UniProt P05556+P08648). As to the kind of experiment: In Vitro Binding Assay (a): inhibition of binding of α5β1 integrin to a fragment of human fibronectin (Fn9-10), Origen electrochemiluminescence. The note with it: geometric mean where tested more than once. The source says:
The assay determined the ability of compounds to inhibit binding of α5β1 integrin to a cognate ligand, a fragment of human fibronectin. The assay used Origen technology (IGEN International) to measure the compound activity. Briefly, α5β1 integrin was coated onto epoxy-paramagnetic beads (Dynal Biotech UK, Bromborough, Wirral, CH62 3QL, UK, Catalogue No 140.11) and biotinylated-fibronectin ligand was coupled to strepatividin labeled Tag-NHS-Ester (BioVeris Corporation, Witney, Oxfordshire, OX28 4GE, UK, Catalogue No 110034). The ruthenium-labeled tag emits an electrochemiluminescence signal upon stimulation which is detected by the Origen reader. Thus, interaction of integrin and ligand causes association of bead and tag, and the resulting electrochemiluminescence signal reflects the level of integrin interaction with fibronectin.
20 μg of recombinant human α5β1 was coated onto 4×10(7) epoxy-paramagnetic beads according to manufacturers instructions at 4° C. for 24 hours. Integrin coating and corresponding activity was subsequently measured for each batch but typically, 25 ng of coated protein was used per assay well.
A DNA fragment encoding the domains 9-10 (amino-acids 1325-1509) of human fibronectin (Swiss-Prot Accession No. P02751) was isolated from cDNA libraries using standard molecular biology and PCR cloning techniques. The cDNA fragment was sub-cloned into a pT73.3 expression vector containing a GST-epitope tag (developed at AstraZeneca; Bagnall et al., Protein Expression and Purification, 2003, 27: 1-11). Following expression in E. coli, the expressed protein, termed Fn9-10, was purified using the GST-tag using standard purification techniques. The recombinant Fn9-10 was subsequently biotinylated using a EZ-link Sulfo-NHS-LC-Biotinylation kit (Perbio Science UK Ltd., Cramlington, Northumberland, NE23 1WA, UK, Catalogue No. 21335) and made to give a final concentration of approximately 1 mg/ml. Tag-NHS-Ester was labeled with streptavidin by incubation at room temperature following manufacturers instructions and buffer-exchanged into PBS to give a concentration of 0.5 mg/ml. Immediately prior to the assay, biotinylated-Fn9-10 and Streptavidin-labeled Tag were diluted in Assay Buffer to give a final concentrations of 0.6 ug/ml and 1.5 ug/ml respectively. The Fn9-10 and Tag solutions were then mixed together in equal volumes and incubated on ice for at least 30 minutes prior to the assay.
Aliquots (20 μl) of each compound dilution were placed into each well of a 384-well round bottomed polypropylene plate (Matrix Technologies, Wilmslow, Cheshire, SK9 3LP, Catalogue No. 4340 384).
For the assay, 25 ng (20 ul) of a5b1-bead suspension and 40 μl of the Fn9-10/Tag pre-incubated solution were added to each well containing 20 μl of compound or control solution. Assay plates were then incubated at room temperature for a minimum of 6 hours before being analysed on an Origen plate reader. The minimum value was subtracted from all values, and the signal was plotted against compound concentration to generate IC50 data.
The data in the above table was generated in an assay substantially as described above in relation to Binding Assay (a). Some of the compounds shown in the table were tested more than once in the assay. For those compounds the IC50 value shown is the geometric mean of the measured IC50 values.

Chain of recombinant human α5β1 (P08648 42-1049): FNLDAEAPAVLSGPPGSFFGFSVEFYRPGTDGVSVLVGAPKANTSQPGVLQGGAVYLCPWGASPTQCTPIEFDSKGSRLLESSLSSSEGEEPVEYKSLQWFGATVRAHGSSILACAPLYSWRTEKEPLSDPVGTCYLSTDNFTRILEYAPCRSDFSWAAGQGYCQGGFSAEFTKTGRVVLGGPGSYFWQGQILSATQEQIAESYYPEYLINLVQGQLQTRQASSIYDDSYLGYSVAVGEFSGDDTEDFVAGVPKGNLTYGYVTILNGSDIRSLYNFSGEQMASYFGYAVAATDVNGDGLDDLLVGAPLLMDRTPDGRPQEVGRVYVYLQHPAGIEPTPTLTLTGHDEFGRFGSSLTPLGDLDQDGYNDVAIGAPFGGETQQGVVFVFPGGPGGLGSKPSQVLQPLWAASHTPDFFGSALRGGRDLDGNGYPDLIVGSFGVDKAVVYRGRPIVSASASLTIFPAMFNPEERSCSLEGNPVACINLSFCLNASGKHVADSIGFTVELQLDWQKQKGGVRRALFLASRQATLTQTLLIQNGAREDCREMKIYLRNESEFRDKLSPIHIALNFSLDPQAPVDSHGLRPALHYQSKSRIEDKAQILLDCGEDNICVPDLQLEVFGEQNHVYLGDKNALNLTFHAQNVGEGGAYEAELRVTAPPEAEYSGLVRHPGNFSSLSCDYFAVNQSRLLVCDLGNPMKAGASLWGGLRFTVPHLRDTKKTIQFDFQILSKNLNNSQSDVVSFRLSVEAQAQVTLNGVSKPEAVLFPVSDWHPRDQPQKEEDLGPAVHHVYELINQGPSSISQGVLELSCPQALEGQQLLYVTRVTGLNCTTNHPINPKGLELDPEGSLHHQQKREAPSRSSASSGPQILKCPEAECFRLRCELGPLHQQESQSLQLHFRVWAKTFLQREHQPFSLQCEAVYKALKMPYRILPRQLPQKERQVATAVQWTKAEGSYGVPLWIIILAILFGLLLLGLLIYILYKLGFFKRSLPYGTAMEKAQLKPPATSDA
Chain of recombinant human α5β1 (P05556 21-798): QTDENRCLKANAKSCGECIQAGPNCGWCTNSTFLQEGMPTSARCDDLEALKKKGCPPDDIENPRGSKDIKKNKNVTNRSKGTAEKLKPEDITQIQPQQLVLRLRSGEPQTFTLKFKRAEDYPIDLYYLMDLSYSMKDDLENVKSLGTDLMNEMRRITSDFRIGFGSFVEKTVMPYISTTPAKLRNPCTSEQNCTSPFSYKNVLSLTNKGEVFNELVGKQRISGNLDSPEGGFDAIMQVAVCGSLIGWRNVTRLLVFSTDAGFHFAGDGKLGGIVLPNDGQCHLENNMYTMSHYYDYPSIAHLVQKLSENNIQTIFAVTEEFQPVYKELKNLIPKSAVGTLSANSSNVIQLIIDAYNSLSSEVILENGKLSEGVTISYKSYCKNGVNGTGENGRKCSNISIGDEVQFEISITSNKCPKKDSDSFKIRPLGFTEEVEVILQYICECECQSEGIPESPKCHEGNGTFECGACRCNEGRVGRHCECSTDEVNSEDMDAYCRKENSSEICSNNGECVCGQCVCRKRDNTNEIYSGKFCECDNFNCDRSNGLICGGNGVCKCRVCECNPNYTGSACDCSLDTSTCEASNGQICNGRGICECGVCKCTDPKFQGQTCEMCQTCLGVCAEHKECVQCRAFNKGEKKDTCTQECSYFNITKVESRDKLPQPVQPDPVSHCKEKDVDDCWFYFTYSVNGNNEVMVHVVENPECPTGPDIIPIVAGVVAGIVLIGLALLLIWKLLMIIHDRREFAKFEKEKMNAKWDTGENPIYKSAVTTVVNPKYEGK

The term IC50 denotes the concentration that inhibits the measured activity by half. Consider `O=C(N[C@@H](Cc1ccc(CCCc2ccc3c(n2)NCCC3)cn1)C(=O)O)c1sccc1Cl` [Example 8, N-[(3-chlorothiophen-2-yl)carbonyl]-3-{5-[3-(5,6,7,8-tetrahydro-1,8-naphthyridin-2-yl)propyl]pyridin-2-yl}-L-alanine], for which the half-inhibitory concentration (IC50) was 4 nM.

Consider `CNc1cccc(CCOc2ccc(C[C@H](NC(=O)c3cccnc3C)C(=O)O)cc2)n1` [Example 2.6, O-{2-[6-(methylamino)pyridin-2-yl]ethyl}-N-[(2-methylpyridin-3-yl)carbonyl]-L-tyrosine], for which the 50% inhibitory concentration (IC50) was 34 nM.

`CNc1cccc(CCOc2ccc(C[C@H](NC(=O)c3csc(C(C)C)c3)C(=O)O)cc2)n1` [Example 1.30, N-[(5-isopropyl-3-thienyl)carbonyl]-O-{2-[6-(methylamino)pyridin-2-yl]ethyl}-L-tyrosine]: the 50% inhibitory concentration (IC50) came out at 132 nM.

For `CCCc1cc(C(=O)N[C@@H](Cc2ccc(OCCc3cccc(NC)n3)cc2)C(=O)O)cs1` [Example 1.29, O-{2-[6-(methylamino)pyridin-2-yl]ethyl}-N-[(5-propyl-3-thienyl)carbonyl]-L-tyrosine], the half-maximal inhibitory concentration (IC50) came out at 71 nM.

Turning to `O=C(N[C@@H](Cc1ccc(OCCc2ccc3c(n2)NCCO3)cc1)C(=O)O)c1ccncc1Cl` [Example 4.4, N-[(3-chloropyridin-4-yl)carbonyl]-O-[2-(3,4-dihydro-2H-pyrido[3,2-b][1,4]oxazin-6-yl)ethyl]-L-tyrosine], the half-maximal inhibitory concentration (IC50) was 5 nM.

For the compound `CNc1cccc(CCOc2ccc(C[C@H](NC(=O)c3nc(Cl)ccc3Cl)C(=O)O)cc2)n1` [Example 1.22, N-[(3,6-dichloropyridin-2-yl)carbonyl]-O-{2-[6-(methylamino)pyridin-2-yl]ethyl}-L-tyrosine], the IC50 came to 34 nM.

Regarding `Cc1cnccc1C(=O)N[C@@H](Cc1ccc(OCCc2ccc3c(n2)NCCO3)cc1)C(=O)O` [Example 4.5, O-[2-(3,4-dihydro-2H-pyrido[3,2-b][1,4]oxazin-6-yl)ethyl]-N-[(3-methylpyridin-4-yl)carbonyl]-L-tyrosine], the IC50 was 4 nM.

For the compound `Cn1c(C(=O)N[C@@H](Cc2ccc(OCCc3ccc4c(n3)NCCC4)cc2)C(=O)O)c(Cl)c2ccccc21` [Example 5.3, N-[(3-chloro-1-methyl-1H-indol-2-yl)carbonyl]-O-[2-(5,6,7,8-tetrahydro-1,8-naphthyridin-2-yl)ethyl]-L-tyrosine], the 50% inhibitory concentration (IC50) turned out to be 94 nM.

In the case of `CNc1cccc(CCOc2ccc(C[C@H](NC(=O)c3sc(C)nc3C)C(=O)O)cc2)n1` [Example 1.5, N-[(2,4-dimethyl-1,3-thiazol-5-yl)carbonyl]-O-{2-[6-(methylamino)pyridin-2-yl]ethyl}-L-tyrosine], the IC50 came to 41 nM.

Regarding `CNc1cccc(CCOc2ccc(C[C@H](NC(=O)c3oc4ccccc4c3C)C(=O)O)cc2)n1` [Example 2.5, O-{2-[6-(methylamino)pyridin-2-yl]ethyl}-N-[(3-methyl-1-benzofuran-2-yl)carbonyl]-L-tyrosine], the half-inhibitory concentration (IC50) was determined as 80 nM.

In the case of `CNc1cccc(CCOc2ccc(C[C@H](NC(=O)c3ccc(C)s3)C(=O)O)cc2)n1` [Example 1.3, O-{2-[6-(methylamino)pyridin-2-yl]ethyl}-N-[(5-methyl-2-thienyl)carbonyl]-L-tyrosine], the IC50 came to 229 nM.

Turning to `CCc1cc(C(=O)N[C@@H](Cc2ccc(OCCc3cccc(NC)n3)cc2)C(=O)O)cs1` [Example 1.28, N-[(5-ethyl-3-thienyl)carbonyl]-O-{2-[6-(methylamino)pyridin-2-yl]ethyl}-L-tyrosine], the 50% inhibitory concentration (IC50) was determined as 75 nM.

On to `CNc1cccc(CCOc2ccc(C[C@H](NC(=O)c3cnccc3C)C(=O)O)cc2)n1` [Example 1.10, O-{2-[6-(methylamino)pyridin-2-yl]ethyl}-N-[(4-methylpyridin-3-yl)carbonyl]-L-tyrosine], for which the IC50 was 23 nM.

For the compound `CNc1cccc(CCOc2ccc(C[C@H](NC(=O)c3ccncc3Cl)C(=O)O)cc2)n1` [Example 2.1, N-(3-chloroisonicotinoyl)-O-{2-[6-(methylamino)pyridin-2-yl]ethyl}-L-tyrosine], the half-inhibitory concentration (IC50) was found to be 7 nM.

Turning to `Cc1noc(C)c1C(=O)N[C@@H](Cc1ccc(OCCc2ccc3c(n2)NCCO3)cc1)C(=O)O` [Example 4.3, O-[2-(3,4-dihydro-2H-pyrido[3,2-b][1,4]oxazin-6-yl)ethyl]-N-[(3,5-dimethylisoxazol-4-yl)carbonyl]-L-tyrosine], the concentration for half-maximal inhibition (IC50) is 1 nM.

On to `CNc1cccc(CCOc2ccc(C[C@H](NC(=O)c3cc(Cl)sc3Cl)C(=O)O)cc2)n1` [Example 1.11, N-[(2,5-dichloro-3-thienyl)carbonyl]-O-{2-[6-(methylamino)pyridin-2-yl]ethyl}-L-tyrosine], for which the IC50 was 15 nM.

With `O=C(N[C@@H](Cc1ccc(OCCc2ccc3c(n2)NCCC3)cc1)C(=O)O)c1sccc1Cl` [Example 5.2, N-[(3-chlorothiophen-2-yl)carbonyl]-O-[2-(5,6,7,8-tetrahydro-1,8-naphthyridin-2-yl)ethyl]-L-tyrosine], the IC50 was 1 nM.

Turning to `CNc1cccc(CCOc2ccc(C[C@H](NC(=O)c3ncc(C(F)(F)F)cc3Cl)C(=O)O)cc2)n1` [Example 1.25, N-{[3-chloro-5-(trifluoromethyl)pyridin-2-yl]carbonyl}-O-{2-[6-(methylamino)pyridin-2-yl]ethyl}-L-tyrosine], the IC50 came out at 36 nM.

Regarding `CNc1cccc(CCOc2ccc(C[C@H](NC(=O)c3c[nH]nc3C)C(=O)O)cc2)n1` [Example 1.15, O-{2-[6-(methylamino)pyridin-2-yl]ethyl}-N-[(3-methyl-1H-pyrazol-4-yl)carbonyl]-L-tyrosine], the 50% inhibitory concentration (IC50) amounted to 129 nM.

As for `CNc1cccc(CCOc2ccc(C[C@H](NC(=O)c3cccn3C)C(=O)O)cc2)n1` [Example 1.4, O-{2-[6-(methylamino)pyridin-2-yl]ethyl}-N-[(1-methyl-1H-pyrrol-2-yl)carbonyl]-L-tyrosine], the IC50 was 55 nM.

For the compound `CNc1cccc(CCOc2ccc(C[C@H](NC(=O)c3c(Cl)cncc3Cl)C(=O)O)cc2)n1` [Example 1.19, N-(3,5-dichloroisonicotinoyl)-O-{2-[6-(methylamino)pyridin-2-yl]ethyl}-L-tyrosine], the IC50 stood at 1 nM.

Consider `CNc1cccc(CCOc2ccc(C[C@H](NC(=O)c3conc3C)C(=O)O)cc2)n1` [Example 2.2, O-{2-[6-(methylamino)pyridin-2-yl]ethyl}-N-[(3-methylisoxazol-4-yl)carbonyl]-L-tyrosine], for which the half-maximal inhibitory concentration (IC50) was 23 nM.

Turning to `O=C(N[C@@H](Cc1ccc(OCCc2ccc3c(n2)NCCO3)cc1)C(=O)O)c1sccc1Cl` [Example 4.2, N-[(3-chlorothiophen-2-yl)carbonyl]-O-[2-(3,4-dihydro-2H-pyrido[3,2-b][1,4]oxazin-6-yl)ethyl]-L-tyrosine], the IC50 was 51 nM.

For `O=C(N[C@@H](Cc1ccc(OCCc2ccc3c(n2)NCCC3)cc1)C(=O)O)c1c(Cl)cncc1Cl` [Example 5.5, N-[(3,5-dichloropyridin-4-yl)carbonyl]-O-[2-(5,6,7,8-tetrahydro-1,8-naphthyridin-2-yl)ethyl]-L-tyrosine], the 50% inhibitory concentration (IC50) was < 1 nM.

As for `CNc1cccc(CCOc2ccc(C[C@H](NC(=O)c3ncc(Cl)cc3Cl)C(=O)O)cc2)n1` [Example 1.24, N-[(3,5-dichloropyridin-2-yl)carbonyl]-O-{2-[6-(methylamino)pyridin-2-yl]ethyl}-L-tyrosine], the IC50 was found to be 35 nM.

On to `CNc1cccc(CCOc2ccc(C[C@H](NC(=O)c3sccc3Cl)C(=O)O)nc2)n1` [Example 7, N-[(3-chlorothiophen-2-yl)carbonyl]-3-(5-{2-[6-(methylamino)pyridin-2-yl]ethoxy}pyridin-2-yl)-L-alanine], for which the IC50 is 21 nM.

For `CCn1nc(C)cc1C(=O)N[C@@H](Cc1ccc(OCCc2cccc(NC)n2)cc1)C(=O)O` [Example 1.7, N-[(1-ethyl-3-methyl-1H-pyrazol-5-yl)carbonyl]-O-{2-[6-(methylamino)pyridin-2-yl]ethyl}-L-tyrosine], the concentration for half-maximal inhibition (IC50) is 73 nM.
